Source: US6372208B1, “Method of reducing an immune response to a recombinant virus” (The Trustees of the University of Pennsylvania, priority 1996, dated 2002)
“Also recorded” adds a separate entry of the source.

Assays:
L929 cells = assay: IFN-γ in the same lymphocyte culture supernatant measured on L929 cells; format: cell-based, C57BL/6 mice; conditions: MLN lymphocytes day 28, restimulated with virus
Experimental: Lymphocytes from MLN of the control group and IL-12 treated group of C57BL/6 mice were harvested 28 days after administration of H5.010CBALP and restimulated in vitro with UV-inactivated H5.010CMVlacZ at 10 particles/cell for 24 hours. Cell-free supernatants were assayed for the presence of IL-2 or IL-4 on HT-2 cells (an IL-2 or IL-4-dependent cell line) [Yang I, cited above]. Presence of IFN-γ in the same lymphocyte culture supernatant was measured on L929 cells as described [Yang I, cited above]. Stimulation index (S.I.) was calculated by dividing ^3H-thymidine cpm incorporated into HT-2 cells cultured in supernatants of lymphocytes restimulated with virus by ^3H-thymidine cpm incorporated into HT-2 cells cultured in supernatants of lymphocytes incubated in antigen-free medium.

[1] = system: human Ad5 recombinant vector; assay: Neutralizing antibody to adenovirus in BAL (Hela cell lacZ transduction); format: in vivo, C57BL/6 mice; conditions: day 28, versus control mice
Experimental: BAL samples obtained from animals 28 days after primary exposure to recombinant virus were evaluated for neutralizing antibodies to adenovirus and anti-adenovirus antibody isotypes as follows. The same four groups of C57BL/6 mice, i.e., control, CD4^+ depleted, IL-12 treated and IFN-γ treated, were infected with H5.010BALP. Neutralizing antibody was measured in serially-diluted BAL samples (100 μl) which were mixed with H5.010CBlacZ (1×10^6 pfu in 20 μl), incubated for 1 hour at 37° C., and applied to 80% confluent Hela cells in 96 well plates (2×10^4 cells per well). After 60 minutes of incubation at 37° C., 100 μl of DMEM containing 20% FBS was added to each well. Cells were fixed and stained for β-galactosidase expression the following day.
The results are shown graphically in FIGS. 1A through 1C, which summarize neutralizing antibody titer, and the relative amounts (OD405) of IgG and IgA present in BAL samples.

[2] = system: virus-infected C57SV cells; assay: CTL 51Cr release assay of restimulated splenocytes, IL-12 (Example 6B); format: cell-based, C57BL/6 mice; conditions: ALP virus, IL-12 i.p.; 51Cr release on virus-infected target cells
Experimental: B. Splenocytes harvested from C57BL/6 mice (“B6”) and IL-12-treated C57BL/6 mice (“B6+IL12”) of Example 5 were restimulated in vitro 10 days after administration of H5.010CBALP with H5.010CMVlacZ for 5 days in DMEM supplemented with 5% FBS and […] 2-mercaptoethanol. These cells were tested for specific lysis on mock-infected (“mock”) and H5.010CBALP (“ALP”)-infected C57SV cells in a 6 hour ^51Cr release assay performed subsequently using the following ratios of effector to target cells (c57SV, H-2^b) in 200 μl DMEM with 10% FBS in V-bottom 96-well plates (E:T=50:1, 25:1, 12:1, 6:1, 5:1 and 3:1).
Prior to mixing with the effector cells, target cells (1×10^6) were labeled with 100 μCi of ^51Cr after a 24 hr-infection with H5.010CMVlacZ at an moi of 50 and used at 5×10^3 cells/well. After incubation for 6 hr, aliquots of 100 μl supernatant were removed for counting in a gamma counter.

[3] = system: recombinant adenoviruses H5.010CBALP and H5.010CMVlacZ; assay: Liver-directed adenovirus gene transfer and readministration (Example 3); format: in vivo, C57BL/6 mice
Experimental: Experiments substantially identical to those described in Example 2 above were conducted in which viral vectors were administered into the blood for introduction of the transgene into the liver (rather than intratracheal delivery into the lung).
Female C57BL/6 mice (6-8 weeks old) were injected with suspensions of H5.010CBALP (1×10^9 pfu in 50 μl of PBS) i.p. at day 0 and similarly with H5.010CMVlacZ at day 28. One group of such mice was used as a control. Another group of mice was acutely depleted of CD4^+ cells by i.p. injection of antibody to CD4^+ cells (GK1.5; ATCC No. TIB207, 1:10 dilution of ascites) at the time of the initial gene therapy (days −3, 0, and +3). A third group of mice was injected with IL-12 (2 μg, i.p. injections) at the time of the first administration of virus (days 0 and +1). A fourth group of mice was injected with gamma interferon (2 μg, i.p. injections) at the time of the first administration of virus (days 0 and +1) .
When mice were subsequently euthanized and necropsied at days 3, 28, or 31, liver tissues were prepared for cryosections according to the procedures used above for lung tissue in Example 2.
The cryosection results were substantially similar for liver-directed gene therapy according to this method as for the lung-directed therapy of Example 2 above. The results described below were obtained from the alkaline phosphatase histochemical stains (magnification ×100) or β-galactosidase X-gal stains (magnification ×100).

[4] = system: recombinant adenoviruses H5.010CMVlacZ and H5.010CBALP; assay: Tail vein adenovirus gene transfer to mouse liver and readministration (Example 4); format: in vivo, C57BL/6 mice; conditions: liver, second virus day 28, read day 31
Experimental: Recombinant virus (H5.010CMVLacZ or H5.010CBALP) was inactivated with ultraviolet light in the presence of 8-methoxypsoralen. Briefly, purified virus was resuspended in 0.33 mg/ml of 8-methoxypsoralen solution and exposed to a 365 nm UV light source on ice at 4 cm from the lamp filter for 30 min. The virus was then passed over a Sephadex G-50 column equilibrated with PBS. […] Suspensions of the viruses (2×10^9 pfu in 100 μl of PBS) were infused into the tail vein of 6 to 8 week old female mice as etailed in the following experiments. Each experiment was performed with a minimum of three mice in which transgene expression was quantified in a section of each of 5 lobes. The minimum analysis was 15 sections per experimental condition.
e. C57BL/6 mice were inoculated i.p. with 0.5 ml aliquots of 1:10 dilution of mouse ascites fluid containing the GK1.5 (anti-CD4 Mab, ATCC TIB207) at days −3, 0 and +3 as described in Example 2. This was equivalent to 100 μg of purified monoclonal antibody per injection. These CD4^+ cell-depleted mice were infected with H5.010CMVlacZ at day 0 and H5.010CBALP at day 28 (“CD4Ab mice”); and
f. […]
Mice from each group were subsequently euthanized and liver tissues evaluated for lacZ expression by X-gal histochemistry (magnification ×100) at day 3 and day 28; and for ALP expression by histochemical staining at day 31 (magnification ×100). […]

With interleukin-12 [IL-12] the “[formula] (column head not readable; IFN-γ in supernatant)” value (L929 cells) was 160, the “reduction of neutralizing antibody in BAL” value [1] was 20 fold and the “adenovirus-specific CTL activity” value [2] was “did not increase adenovirus-specific CTL activity; also recorded: unaffected”. The “transgene expression after first administration of virus (ALP)” value ([3]; liver, days 3 and 28) was “diminished after about one month”, the “gene transfer upon second administration of virus (lacZ)” value ([3]; liver, readministered day 28, read day 31) was “some gene transfer to the liver via the blood was achieved” and the neutralizing antibodies ([3]; liver-directed gene therapy, Example 3) was “the level of neutralizing antibody was reduced”. The “readministration of virus (gene transfer)” value [4] was “insufficient to allow efficient gene transfer upon readministration of virus”.
